# In US20230330251A1, “METHODS FOR TREATING CANCERS WITH ANTIBODY DRUG CONJUGATES (ADC) THAT BIND TO 191P4D12 PROTEINS” (AGENSYS, INC., priority 2020, published 2023):
# Columns and labels:
# [1] = test system: subjects with previously treated locally advanced or metastatic urothelial cancer; assay: EV-301: progression free survival (PFS1) per RECIST V1.1, investigator assessment; type: in vivo, human
# From the text: For each subject, PFS1 is defined as the time from the date of randomization until the date of radiological disease progression (per RECIST V1.1), or until death due to any cause. If a subject has neither progressed nor died, the subject was censored at the date of last radiological assessment. Subjects who receive any further anticancer therapy for the disease before radiological progression were censored at the date of the last radiological assessment before the anticancer therapy started.
# The efficacy endpoint of PFS1 was analyzed using the log-rank test stratified by ECOG PS (0 vs 1), regions of the world (Western EU, US or the rest of world) and liver metastasis (yes or no). Randomized treatment and the strata used for randomization was used for the analysis. In addition, stratified Cox proportional hazard model was used to estimate the hazard ratio and the corresponding 95% confidence interval. The median PFS1 was estimated using the Kaplan-Meier method and reported along with the corresponding 95% confidence interval by treatment arm.
# The primary analysis was performed using the FAS. Additional sensitivity analyses for PFS1 was also be performed. Details are specified in the SAP.
# [2] = test system: subjects with previously treated locally advanced or metastatic urothelial cancer; assay: EV-301: duration of response (DOR) per RECIST V1.1; type: in vivo, human
# From the text: Duration of Response (DOR) is defined as the time from the date of the first response CR/PR per RECIST V1.1 (whichever is first recorded) that is subsequently confirmed as assessed by investigator to the date of radiological progression or date of death for subjects who achieved CR or PR. If a subject has not progressed or died, the subject was censored at the date of last radiological assessment or at the date of first CR/PR if no other post-baseline radiological assessment is available after the first CR/PR. The median DOR was estimated using the Kaplan-Meier method and is reported along with the corresponding 95% confidence interval by treatment arm.
# [3] = test system: patients with previously treated locally advanced or metastatic urothelial carcinoma (la/mUC) with poor prognostic factors; assay: EV-301 subgroup analyses of OS, PFS and ORR incl. hard-to-treat subgroups (age ≥65 years, liver metastasis, primary upper tract disease, CPI nonresponse); type: in vivo, human; conditions: for ORR, EV vs SC Absolute Difference / Overall response rate (ORR), % / Overall response rate (ORR), n/N: Response-Evaluable Population
# Description: Using FAS, the analysis for OS, PFS1 and ORR were repeated by ECOG PS (0 vs 1), regions of the world, and liver metastasis respectively.
# In addition, subgroup analyses were conducted for selected endpoints to determine whether the treatment effect is consistent.
# Subgroup analyses were prespecified for the primary endpoint of OS and secondary endpoints of investigator-assessed progression-free survival (PFS) and overall response rate (ORR) per RECIST v1.1. Kaplan-Meier analyses compared OS and PFS between treatments for selected hard-to-treat subgroups as follows: age ≥65 years, presence of liver metastasis, primary upper tract disease, and checkpoint inhibitor (CPI) nonresponse. ORR and safety were also evaluated within subgroups. The Cox proportional hazards model was used to estimate hazard ratios. The Cochran-Mantel-Haenszel test was used to compare response and disease control rates between groups.
# [4] = Phase 1 study of EV: pharmacokinetics; type: in vivo, human
# From the text: Based on pharmacokinetic data from the phase 1 study, the half-life of EV is ˜1-2 days. […] Minimal (<50%) intra-cycle accumulation of MMAE was observed. It is anticipated that the dosing schedule in the study will maintain ADC exposures over each 28-day cycle, contributing to a favorable balance of activity and safety, as observed in the phase 1 trial.
# 191P4D12 = molecular target: T1, 191P4D12 (Homo sapiens, UniProt Q96NY8)
# T1 sequence (Q96NY8 32-510): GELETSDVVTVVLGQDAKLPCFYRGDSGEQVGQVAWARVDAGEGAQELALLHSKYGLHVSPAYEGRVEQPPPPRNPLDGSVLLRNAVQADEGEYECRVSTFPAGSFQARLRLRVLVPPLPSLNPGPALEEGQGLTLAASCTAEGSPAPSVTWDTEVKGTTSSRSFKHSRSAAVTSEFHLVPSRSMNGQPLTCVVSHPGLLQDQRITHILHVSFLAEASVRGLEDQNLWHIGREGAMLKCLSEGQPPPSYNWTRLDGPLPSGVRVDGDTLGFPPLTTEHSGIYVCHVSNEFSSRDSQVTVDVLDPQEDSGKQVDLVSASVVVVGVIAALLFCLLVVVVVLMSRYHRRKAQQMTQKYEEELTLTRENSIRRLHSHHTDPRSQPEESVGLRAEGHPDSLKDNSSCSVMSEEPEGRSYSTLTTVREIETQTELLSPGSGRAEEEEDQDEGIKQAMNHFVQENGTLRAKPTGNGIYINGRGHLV
# From the text: As described above and in U.S. Pat. No. 8,637,642, AGS-22M6E is an ADC derived from a murine hybridoma cell line.
# [5] = patients with confirmed complete or partial response
substance,measurement,setting,value
enfortumab vedotin,Median PFS,[1]; All,5.55 mo
same,"PFS, EV vs SC HR",[1]; All,0.615
same,"Progression-free survival (PFS) Events, %",[1]; All,(66.8) %
same,"Progression-free survival (PFS) Events, n/N",[1]; All,201/301
same,Median PFS,"[1]; FAS, investigator assessment",5.55 Months
same,"PFS Events, %","[1]; FAS, investigator assessment",(66.8%)
same,reduction in risk of disease progression or death,[1]; PADCEV vs chemotherapy,39%
same,median duration of response,[2]; patients who had a complete or partial response,7.39 months
same,"Duration of Response (DOR), Events, %",[2]; [5],(53.8%)
same,"Duration of Response, At 6 months",[2]; [5],53.8%
same,"Duration of Response, At 12 months",[2]; [5],27.7%
same,Median of DOR,[2]; [5],7.39 Months
same,Median OS,[3]; Age ≥65 yrs,14.32 mo
same,Median PFS,[3]; Age ≥65 yrs,5.65 mo
same,"OS, EV vs SC HR",[3]; Age ≥65 yrs,0.745
same,"Overall survival (OS) Events, %",[3]; Age ≥65 yrs,(44) %
same,"Overall survival (OS) Events, n/N",[3]; Age ≥65 yrs,85/193
same,"PFS, EV vs SC HR",[3]; Age ≥65 yrs,0.616
same,"Progression-free survival (PFS) Events, %",[3]; Age ≥65 yrs,(65) %
same,"Progression-free survival (PFS) Events, n/N",[3]; Age ≥65 yrs,126/193
same,"ORR, EV vs SC Absolute Difference",[3]; Age ≥65 yrs,20.9%
same,"Overall response rate (ORR), %",[3]; Age ≥65 yrs,40.8%
same,"Overall response rate (ORR), n/N",[3]; Age ≥65 yrs,75/184
same,Median OS,[3]; CPI non-responder,11.63 mo
same,Median PFS,[3]; CPI non-responder,5.42 mo
same,"OS, EV vs SC HR",[3]; CPI non-responder,0.757
same,"Overall survival (OS) Events, %",[3]; CPI non-responder,(48) %
same,"Overall survival (OS) Events, n/N",[3]; CPI non-responder,100/207
same,"PFS, EV vs SC HR",[3]; CPI non-responder,0.697
same,"Progression-free survival (PFS) Events, %",[3]; CPI non-responder,(71) %
same,"Progression-free survival (PFS) Events, n/N",[3]; CPI non-responder,146/207
same,"ORR, EV vs SC Absolute Difference",[3]; CPI non-responder,22.3%
same,"Overall response rate (ORR), %",[3]; CPI non-responder,39.7%
same,"Overall response rate (ORR), n/N",[3]; CPI non-responder,79/199
same,Median OS,[3]; Presence of Liver metastasis,9.63 mo
same,Median PFS,[3]; Presence of Liver metastasis,4.14 mo
same,"OS, EV vs SC HR",[3]; Presence of Liver metastasis,0.660
same,"Overall survival (OS) Events, %",[3]; Presence of Liver metastasis,(57) %
same,"Overall survival (OS) Events, n/N",[3]; Presence of Liver metastasis,53/93
same,"PFS, EV vs SC HR",[3]; Presence of Liver metastasis,0.597
same,"Progression-free survival (PFS) Events, %",[3]; Presence of Liver metastasis,(76) %
same,"Progression-free survival (PFS) Events, n/N",[3]; Presence of Liver metastasis,71/93
same,"ORR, EV vs SC Absolute Difference",[3]; Presence of Liver metastasis,24.7%
same,"Overall response rate (ORR), %",[3]; Presence of Liver metastasis,35.5%
same,"Overall response rate (ORR), n/N",[3]; Presence of Liver metastasis,33/93
same,Median OS,[3]; Primary upper tract disease,12.62 mo
same,Median PFS,[3]; Primary upper tract disease,5.62 mo
same,"OS, EV vs SC HR",[3]; Primary upper tract disease,0.848
same,"Overall survival (OS) Events, %",[3]; Primary upper tract disease,(45) %
same,"Overall survival (OS) Events, n/N",[3]; Primary upper tract disease,44/98
same,"PFS, EV vs SC HR",[3]; Primary upper tract disease,0.716
same,"Progression-free survival (PFS) Events, %",[3]; Primary upper tract disease,(64) %
same,"Progression-free survival (PFS) Events, n/N",[3]; Primary upper tract disease,63/98
same,"ORR, EV vs SC Absolute Difference",[3]; Primary upper tract disease,24.8%
same,"Overall response rate (ORR), %",[3]; Primary upper tract disease,43.9%
same,"Overall response rate (ORR), n/N",[3]; Primary upper tract disease,43/98
same,"ORR in hard-to-treat subgroups, EV compared to SC",[3]; across all subgroups,higher
same,"PFS in hard-to-treat subgroups, EV compared to SC",[3]; across all subgroups,longer
same,"OS in hard-to-treat subgroups, EV vs SC","[3]; liver metastasis, CPI nonresponsive, primary upper tract disease, poor prognostic factors, listed as EV",consistently longer
same,progression-free survival benefit in subgroup analyses,"[3]; prespecified key subgroups, intention-to-treat population",present across multiple subgroups
same,intra-cycle accumulation of ADC,"[4]; dosing on Days 1, 8 and 15 of every 28-day cycle, any dose level",< 30%
same,half-life,[4]; phase 1 study,24 to 48 h
same,comparability between enfortumab vedotin and AGS-22M6E,191P4D12,confirmed
